According to patent US20240117431A1, “STEM-CELL BASED BIOMARKER DISCOVERY” (THE REGENTS OF THE UNIVERSITY OF CALIFORNIA, priority 2020, published 2024):

Tests used:
UPRT(+)-microglia brains = assay: In vivo labeling of brain RNA in mice transplanted with UPRT-expressing human microglia, biotin dot blot; conditions: IP close to 150 mg/kg, 24-48 hours, FIG. 14
Experimental: 5-vinyl-uracil (Alfa Aesar #4437903) was prepared in sterile conditions at 4 times the concentration in 100% DMSO, then diluted to 25% DMSO by adding corn oil to a final concentration of 500 mM. The mixture was heated to 37° C. for […] until homogenous. Mice are weighed before intraperitoneal injection (IP) injection to ensure close to 150 mg/kg are injected per treatment. For an (˜20 g) adult mouse typically 60-70 μl are IP injected per treatment. Mice are monitored for signs of distress. After 24-48 hours of treatment, mice were sacrificed and brains were immediately placed into 2 ml of RNAlater and left in 4° C. for 3-5 days. After removing brains from RNAlater, they were homogenized with RNAse-free 1.4 mm steel beads (Next Advance SSB14B-RNA) for 60 seconds and centrifuged at 4° C. for 5 min, maximum speed to separate the fatty layer. The bottom layer is collected, homogenized with 200 ul chloroform and centrifuged for 20 minutes, at 4° C. The aqueous layer is collected and 500 ul isopropanol added. After centrifugation for 30 minutes 4° C., the RNA pellet is washed in 70% Ethanol twice. After removing ethanol, the RNA pellet is resuspended in nuclease-free water and nanodrop to determine the concentration. From each sample, 15 μg of RNA was subjected in tetrazine-biotin ligation at 37° C., 500 RPM for 3 hours. The biotinylated RNA was purified with RNA Zymo Clean and Concentrator #5 and eluted with nuclease-free water. 2 μg of purified RNA was spotted onto a N+ Hybond membrane and UV-crosslinked at 254 nm (120,000 uJ). Membrane is blocked in blocking buffer (0.12 M NaCl, 0.016 M Na2HPO4, 0.008 M NaH2PO4, 0.17 M SDS) and followed by incubation with high sensitivity streptavidin-HRP (Fisher Scientific, Cat #: P121130) at 1:5000 dilution in blocking buffer for 5 minutes. The membrane was washed twice in a Wash A buffer (1:10 dilution of blocking buffer) and twice in Wash B buffer (Tris-saline buffer). It was then incubated for 1-5 min. in ECL Chemiluminescent Substrate (Fisher Scientific, Cat #: P132106) and imaged on a ChemiDoc MP imaging system (Bio-Rad). […]

[1] = test system: 3×MT-TgUPRT transfected HEK293 cells; assay: RNA fluorescence imaging via IEDDA (confocal microscopy); type: cell-based, Toxoplasma gondii; conditions: 1 mM, 24 hours, tetrazene biotin + fluorophore-streptavidin, FIG. 10A
Experimental: RNA fluorescence imaging via IEDDA: The cell culture dishes and glass coverslips were coated with poly-D-lysine (10 μg/ml) for 24 h at 37° C. and washed three times with autoclaved water to remove the excessive amount of poly-D lysine. HEK293 cells were seeded on glass coverslips at 2.5×105 in a 6-well plate. Twenty-four hours post-seeding, cells were transiently transfected with 1 μg WT- or MT-TgUPRT using jetPRIME transfection reagent according to the manufacturers manual (Polyplus Transfection, France). Twenty-four hours post-transfection, cells were treated with DMSO or 1 mM 5VU for 24 hours. After labeling, cells were washed 3× with DPBS, fixed and permeabilized for 30 min at room temperature with 3.7% paraformaldehyde and 0.15% Triton-X100. Cells were then washed three times (7 min/each) on orbital shaker with DPBS, blocked with Streptavidin (2 mg/mL in DPBS) for 30 minutes and followed with BSA (1 mg/ml in DPBS, 0.45% NaCl and 0.025% NaN3) for 30 min at room temperature, washed 2× with DPBS. Blocked cells were incubated with 200-500 μL of 1 mM biotin-tetrazine solution in water for 3 hours at 37° C. […] Slides were imaged via fluorescence confocal microscopy using a 63× oil immersion objective on a […] Carl Zeiss microscope. […]

C=Cc1c[nH]c(=O)[nH]c1=O [compound 2, 5-Vinylpyrimidine-2,4(1H,3H)-dione]
incorporation into brain RNA, UPRT(+)-microglia transplanted (UPRT(+)-microglia brains): observable signals
incorporation into brain RNA, UPRT(−)-microglia brains (UPRT(+)-microglia brains): significant biotin signal was not observed
fluorescent signal of labeled RNA [1]: fluorescent signal was observed only in the presence of both 2 and 3×MT-TgUPRT transfected cells
